The target of assay [1] is T1, MMP-9 (Homo sapiens, UniProt P14780).
T1 construct: purchased Abcam (Cambridge, UK) ab139448
The assay can be described thus: MMP-9 inhibitor screening assay kit (Abcam #ab139448). The format is biochemical. The following applies: NSGM 100 µM; read-out: MMP-9 inhibition in screen. Here is the method: Screening of sulfated benzofurans and quinazolinones (100 µM, final) against MMP-9 was performed using a commercially available assay kit (Abcam catalog #ab139448) following manufacturer’s protocol. All experiments were performed at least twice in duplicates.

For assay [2], the target named is T2, MMP-8 (Homo sapiens, UniProt P22894).
T2 construct: purchased R&D Systems (Minneapolis, MN, USA)
T2 sequence (P22894 101-467): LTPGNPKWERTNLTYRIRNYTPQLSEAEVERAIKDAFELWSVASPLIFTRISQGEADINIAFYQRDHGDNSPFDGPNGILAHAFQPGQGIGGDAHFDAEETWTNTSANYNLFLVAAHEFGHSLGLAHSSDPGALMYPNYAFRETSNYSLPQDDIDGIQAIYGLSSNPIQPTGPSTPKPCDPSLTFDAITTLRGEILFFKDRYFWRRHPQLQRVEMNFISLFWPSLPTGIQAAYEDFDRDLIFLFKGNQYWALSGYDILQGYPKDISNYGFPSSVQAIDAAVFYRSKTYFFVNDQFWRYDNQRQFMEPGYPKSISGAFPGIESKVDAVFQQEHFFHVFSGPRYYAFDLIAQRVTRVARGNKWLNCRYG
The assay can be described thus: Direct inhibition of MMP-8, fluorogenic substrate hydrolysis assay. Particulars: for IC50 / ΔY (efficacy of MMP-8 inhibition): Tris-buffered saline, 10 mM CaCl2, 1 µM ZnCl2, pH 7.5, 37 °C; for IC50: error ± 1 SD, read-out: IC50 (potency of MMP-8 inhibition); for ΔY (efficacy of MMP-8 inhibition): from dose-response regression. Type of assay: biochemical. Here is the method: NSGMs were screened for the inhibition of MMP-8 using a fluorogenic substrate assay, as described earlier. Briefly, 100 µg/mL pro-MMP-8 was activated by incubating with 1mM p-aminomercuric acetate at 37 °C for 1 hr. Activated MMP-8 (10 nM, final) was then incubated with NSGMs (100 µM, final) in Tris-buffered saline containing 10 mM CaCl2,1 µM ZnCl2, pH 7.5 for 10 min at 37 °C. Residual MMP-8 activity was measured by adding the fluorogenic substrate (DNP-Pro-Leu-Ala- Tyr-Trp-Ala-Arg, 20 µM, final) and monitoring initial linear rate of increase in fluorescence. IC50s were calculated using the following equation, Y=Y0+YM−Y0/1+10^(log[I]0−logIC50)×HS . Y is the ratio of residual enzyme activity in the presence of NSGM to that in its absence, Y0 and YM are the minimal and maximal values of Y, respectively, obtained following regression, and HS is the Hill slope of inhibition.

Setting [3] is: NSGM 100 µM, MMP-8 10 nM, pH 7.5, 37 °C.

SMILES strings stand for the structures.

T1 sequence (P14780 107-444 limits assumed): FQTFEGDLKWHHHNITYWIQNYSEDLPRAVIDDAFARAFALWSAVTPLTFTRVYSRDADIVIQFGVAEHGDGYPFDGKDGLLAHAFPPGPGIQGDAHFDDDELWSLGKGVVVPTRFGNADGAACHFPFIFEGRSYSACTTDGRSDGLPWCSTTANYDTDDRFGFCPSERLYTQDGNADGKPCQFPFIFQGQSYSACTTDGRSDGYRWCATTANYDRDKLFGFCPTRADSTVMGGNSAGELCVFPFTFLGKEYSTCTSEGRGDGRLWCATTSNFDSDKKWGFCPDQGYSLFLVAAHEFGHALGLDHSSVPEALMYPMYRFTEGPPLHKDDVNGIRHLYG

One may read the inhibition as the relative decrease from the control value, in per cent. As to `CCOC(=O)c1c(C)oc2cc(OCC3CCCCC3)c(OCc3oc4cc(OCC5CCCCC5)c(OS(=O)(=O)O)cc4c3C(=O)OCC)cc12` [NSGM 29], the inhibition at 100 µM in assay [1] was greater than 80%. Moreover, the “MMP-8 inhibition in library screen (result in words)” value in assay [2] (setting [3]) is “did not inhibit MMP-8”.

For orientation: IC50 means the point on the concentration scale where inhibition reaches its midpoint. With `O=c1c2ccccc2nc(-c2ccc(OS(=O)(=O)O)cc2)n1CCCCCCCCCn1cc(Cn2c(-c3ccc(OS(=O)(=O)O)cc3)nc3ccccc3c2=O)nn1` [NSGM 40], in assay [2] (setting [3]), the “MMP-8 inhibition in library screen” value is reported as greater than 80%. Also, in assay [2], the IC50 came out at 25 ± 1 µM and the “ΔY (efficacy of MMP-8 inhibition)” value came to 100 ± 2%.

On to `O=c1c2ccccc2nc(-c2ccc(OS(=O)(=O)O)cc2)n1CCCCCCCCCCn1cc(Cn2c(-c3ccc(OS(=O)(=O)O)cc3)nc3ccccc3c2=O)nn1` [NSGM 41], for which the “MMP-8 inhibition in library screen” value in assay [2] (setting [3]) is recorded as greater than 80%. In addition, in assay [2], the concentration for half-maximal inhibition (IC50) was determined as 15 ± 1 µM and the “ΔY (efficacy of MMP-8 inhibition)” value was determined as 97 ± 2%.

Consider `O=c1c2ccccc2nc(-c2ccc(OS(=O)(=O)O)cc2)n1CCCCCCCCCCCCn1cc(Cn2c(-c3ccc(OS(=O)(=O)O)cc3)nc3ccccc3c2=O)nn1` [NSGM 42], for which the “MMP-8 inhibition in library screen” value in assay [2] (setting [3]) was greater than 80%. Besides, in assay [2], the IC50 worked out at 34 ± 4 µM and the “ΔY (efficacy of MMP-8 inhibition)” value is 98 ± 8%.

These data come from publication PMC7465109, “Discovery of Sulfated Small Molecule Inhibitors of Matrix Metalloproteinase-8” (Biomolecules, 2020).
